Laboratory results published in the NIST ThermoML archive (doi:10.1021/je025655p).

Key:
[1] = xn = mol fraction of the nth substance listed; settings: 101.3 kPa, Liquid; for viscosity: Capillary tube (Ostwald / Ubbelohde) method; for speed of sound: Sing-around technique in a fixed-path interferometer; for mass density: Vibrating tube method
[2] = excess molar enthalpy (molar enthalpy of mixing); xn = mol fraction of the nth substance listed; settings: 101.3 kPa, Liquid, Flow calorimetry

OCC(F)(F)F [2,2,2-trifluoroethanol] + C1CCOCC1
Settings | excess molar enthalpy [kcal/mol] | mass density [kg/m3] | speed of sound [m/s] | viscosity [mPa·s]
[1], 283.15 K, x2 = 0.0508 | – | – | – | 2.521
[1], 283.15 K, x2 = 0.1011 | – | – | – | 2.265
[1], 283.15 K, x2 = 0.1039 | – | 1328.18 | 903.5 | –
[1], 283.15 K, x2 = 0.2025 | – | – | – | 1.834
[1], 283.15 K, x2 = 0.2071 | – | 1259.32 | 942.2 | –
[1], 283.15 K, x2 = 0.3024 | – | – | – | 1.546
[1], 283.15 K, x2 = 0.3067 | – | – | 985.6 | –
[1], 283.15 K, x2 = 0.3073 | – | 1199.39 | – | –
[1], 283.15 K, x2 = 0.404 | – | – | – | 1.348
[1], 283.15 K, x2 = 0.4123 | – | – | 1034 | –
[1], 283.15 K, x2 = 0.4127 | – | 1142.29 | – | –
[1], 283.15 K, x2 = 0.5017 | – | 1097.77 | 1076.2 | –
[1], 283.15 K, x2 = 0.5027 | – | – | – | 1.22
[1], 283.15 K, x2 = 0.6011 | – | 1051.7 | 1124.9 | –
[1], 283.15 K, x2 = 0.6069 | – | – | – | 1.123
[1], 283.15 K, x2 = 0.7013 | – | – | – | 1.064
[1], 283.15 K, x2 = 0.7183 | – | 1001.3 | 1184.3 | –
[1], 283.15 K, x2 = 0.8016 | – | – | – | 1.026
[1], 283.15 K, x2 = 0.8206 | – | 960.36 | 1237.7 | –
[1], 283.15 K, x2 = 0.8955 | – | 931.9 | 1278.1 | –
[1], 283.15 K, x2 = 0.9064 | – | – | – | 1.01
[1], 298.15 K, x2 = 0.0508 | – | – | – | 1.68
[1], 298.15 K, x2 = 0.1011 | – | – | – | 1.557
[1], 298.15 K, x2 = 0.1023 | – | 1305.58 | 850.5 | –
[1], 298.15 K, x2 = 0.2025 | – | – | – | 1.33
[1], 298.15 K, x2 = 0.2029 | – | 1239.41 | 886.4 | –
[1], 298.15 K, x2 = 0.3024 | – | – | – | 1.159
[1], 298.15 K, x2 = 0.3203 | – | 1170.85 | 933.6 | –
[1], 298.15 K, x2 = 0.404 | – | – | – | 1.034
[1], 298.15 K, x2 = 0.412 | – | 1122.5 | 972.6 | –
[1], 298.15 K, x2 = 0.5027 | – | – | – | 0.9509
[1], 298.15 K, x2 = 0.5192 | – | 1070.38 | – | –
[1], 298.15 K, x2 = 0.5208 | – | – | 1021 | –
[1], 298.15 K, x2 = 0.6069 | – | – | – | 0.8855
[1], 298.15 K, x2 = 0.6171 | – | 1026.55 | 1065.4 | –
[1], 298.15 K, x2 = 0.7013 | – | – | – | 0.845
[1], 298.15 K, x2 = 0.7342 | – | 977.81 | 1121 | –
[1], 298.15 K, x2 = 0.793 | – | 954.59 | – | –
[1], 298.15 K, x2 = 0.7996 | – | – | 1152.3 | –
[1], 298.15 K, x2 = 0.8016 | – | – | – | 0.8183
[1], 298.15 K, x2 = 0.8967 | – | 915.73 | 1201.6 | –
[1], 298.15 K, x2 = 0.9064 | – | – | – | 0.8047
[1], 313.15 K, x2 = 0.0508 | – | – | – | 1.171
[1], 313.15 K, x2 = 0.0995 | – | – | 813.9 | –
[1], 313.15 K, x2 = 0.1011 | – | – | – | 1.112
[1], 313.15 K, x2 = 0.1028 | – | 1280.8 | – | –
[1], 313.15 K, x2 = 0.2 | – | 1217.96 | 845.8 | –
[1], 313.15 K, x2 = 0.2025 | – | – | – | 0.9911
[1], 313.15 K, x2 = 0.3024 | – | – | – | 0.891
[1], 313.15 K, x2 = 0.3049 | – | 1157.77 | 885 | –
[1], 313.15 K, x2 = 0.404 | – | – | – | 0.8127
[1], 313.15 K, x2 = 0.4108 | – | 1102.63 | – | –
[1], 313.15 K, x2 = 0.4111 | – | – | 927.4 | –
[1], 313.15 K, x2 = 0.5027 | – | – | – | 0.757
[1], 313.15 K, x2 = 0.504 | – | 1058.19 | 967.4 | –
[1], 313.15 K, x2 = 0.5961 | – | 1017.26 | – | –
[1], 313.15 K, x2 = 0.6032 | – | – | 1010.4 | –
[1], 313.15 K, x2 = 0.6069 | – | – | – | 0.7128
[1], 313.15 K, x2 = 0.6986 | – | 974.97 | – | –
[1], 313.15 K, x2 = 0.7013 | – | – | – | 0.6832
[1], 313.15 K, x2 = 0.733 | – | – | 1070.3 | –
[1], 313.15 K, x2 = 0.8016 | – | – | – | 0.6642
[1], 313.15 K, x2 = 0.8321 | – | 923.77 | 1116.2 | –
[1], 313.15 K, x2 = 0.8986 | – | 899.6 | – | –
[1], 313.15 K, x2 = 0.8988 | – | – | 1149.4 | –
[1], 313.15 K, x2 = 0.9064 | – | – | – | 0.6543
[2], 283.15 K, x2 = 0.065 | -0.102 | – | – | –
[2], 283.15 K, x2 = 0.127 | -0.178 | – | – | –
[2], 283.15 K, x2 = 0.248 | -0.283 | – | – | –
[2], 283.15 K, x2 = 0.36 | -0.342 | – | – | –
[2], 283.15 K, x2 = 0.466 | -0.362 | – | – | –
[2], 283.15 K, x2 = 0.57 | -0.35 | – | – | –
[2], 283.15 K, x2 = 0.664 | -0.303 | – | – | –
[2], 283.15 K, x2 = 0.755 | -0.243 | – | – | –
[2], 283.15 K, x2 = 0.839 | -0.168 | – | – | –
[2], 283.15 K, x2 = 0.921 | -0.0829 | – | – | –
[2], 283.15 K, x2 = 0.962 | -0.037 | – | – | –
[2], 298.15 K, x2 = 0.065 | -0.113 | – | – | –
[2], 298.15 K, x2 = 0.127 | -0.204 | – | – | –
[2], 298.15 K, x2 = 0.248 | -0.322 | – | – | –
[2], 298.15 K, x2 = 0.36 | -0.384 | – | – | –
[2], 298.15 K, x2 = 0.466 | -0.404 | – | – | –
[2], 298.15 K, x2 = 0.57 | -0.387 | – | – | –
[2], 298.15 K, x2 = 0.664 | -0.339 | – | – | –
[2], 298.15 K, x2 = 0.755 | -0.268 | – | – | –
[2], 298.15 K, x2 = 0.839 | -0.184 | – | – | –
[2], 298.15 K, x2 = 0.921 | -0.0908 | – | – | –
[2], 298.15 K, x2 = 0.962 | -0.0428 | – | – | –
[2], 313.15 K, x2 = 0.065 | -0.114 | – | – | –
[2], 313.15 K, x2 = 0.127 | -0.215 | – | – | –
[2], 313.15 K, x2 = 0.248 | -0.348 | – | – | –
[2], 313.15 K, x2 = 0.36 | -0.421 | – | – | –
[2], 313.15 K, x2 = 0.466 | -0.444 | – | – | –
[2], 313.15 K, x2 = 0.57 | -0.427 | – | – | –
[2], 313.15 K, x2 = 0.664 | -0.374 | – | – | –
[2], 313.15 K, x2 = 0.755 | -0.297 | – | – | –
[2], 313.15 K, x2 = 0.839 | -0.203 | – | – | –
[2], 313.15 K, x2 = 0.921 | -0.0997 | – | – | –
[2], 313.15 K, x2 = 0.962 | -0.0466 | – | – | –
